Data set [1] relates to testis. The data set is classed as in vivo, rat. As for the experimental part: C) Analysis of apoptotic DNA fragmentation in testes using 3′-end DNA labeling with the terminal transferase, followed by gel fractionation and autoradiography. D) In situ staining of apoptotic DNA fragmentation in seminiferous tubules using the TUNNEL method.
(§1) Male Sprague-Dawley rats at 28 days of age were treated subcutaneously with GnRH antagonist (250 μg/kg/day) to suppress pituitary gonadotropin secretion. […] Animals were killed 5 days after initial treatment and organ weight determined. Testes were stored at −70° C. before RNA or DNA extraction or fixed in Bouin's solution for in situ labeling of DNA ends.

The test system of data set [2] is INSL3 message. Description: Gonadotropin deprivation model: testis INSL3 mRNA (Northern blot). The data set is classed as in vivo, rat. The note with it: FIG. 4B. As for the experimental part: as §1
The subject of data set [3] is male germ cells. Description: Gonadotropin deprivation model: testis apoptotic DNA fragmentation. The data set is classed as in vivo, rat. As for the experimental part:
as §1
DNA from whole testis was isolated and quantitated with spectrophotometry at 260 nm. Aliquots of DNA (500 ng) from each sample were labeled at 3′-ends with 32P-dideoxy-ATP (3,000 Ci/mmol: Amersham. Arlington Heights, Ill.) using terminal transferase (25 U/sample; Boehringey-Mannheim, Indianapolis, Ind.) as described. Labeled samples were fractionated through 2% agarose gels. After electrophoresis, gels were dried for 2 h in a slab-gel dryer without heat and exposed to Kodak X-OMAT AR films (Eastman Kodak Co., Rochester, N.Y.) at −70 C. After autoradiography, portions of each lane corresponding to DNA less than 10 kilobases (kb) were isolated and counted in a y-spectrometer for estimating the degree of intenucleosomal DNA fragmentation. For in situ DNA 3′-end labeling, fixed testicular tissues were embedded in paraffin, and cut in 3 μm sections. To detect apoptotic DNA fragmentation, the in situ cell death detection kit (Roche Diagnostics, Mannheim, Germany) was used according to manufacturer's instruction and sections counterstained with hematoxylin.

For data set [4], the system named is cumulus-enclosed oocytes. Description: Germinal vesicle breakdown in cultured cumulus-enclosed oocytes. It counts as cell-based, rat. The note with it: for oocyte maturation (germinal vesicle breakdown): cultured cumulus-enclosed oocytes from preovulatory follicles, FIG. 1D. The protocol: (§2) Cumulus-enclosed oocytes (CEO) were collected and cultured as described (Vaknin et al. PMID: 11133687). Briefly, female rats at 26 d of age were injected with 15 IU pregnant mare serum gonadotropin (PMSG). After 48-50 h, ovaries were dissected in Leivovitz's L-15 medium (Invitrogen Corp., Carlsbad, Calif.) supplemented with 5% fetal bovine serum and 100 μg/ml of penicillin and streptomycin. The CEOs were collected by puncturing the largest ovarian follicles in the L15 medium containing 0.25 mM of MIX within 20 min, washed twice in L15 medium without MIX and transfer to test medium. The CEO were cultured with or without different doses of rat INSL3 in L15 medium without both FBS and IBMX. For controls, the CEOs were cultured in L15 medium with IBMX. At the end of culture, the occurrence of germinal vesicle breakdown (GVBD) in oocyte was examined after removing cumulus cells surrounding CEO by a small-bore pipette under Hoffman modulation contrast microscopy (Nikon Inc., Tokyo, Japan). For preovulatory follicles, follicles were excised from the ovary after PMSG treatment for 48 h. The follicles, 20-30 per vial, were cultured with or without different doses of rat INSL3 or LH in L15 medium without FBS. The vials were flushed at the start of the culture with O2/N2 (1/1) and cultured at 37C with gently shaking. After culture, individual CEO was dissected from each follicle to examine the occurrence of GVBD. For cAMP determination, 20 to 30 denuded oocytes were cultured with or without rat INSL3 (10 nM) in L15 medium containing 10 μM of cilostamide with or without 50 μM of forskolin. After treatment, oocytes were collected in 2 μl of medium, frozen and thawed to break the cells before acetylation of samples with triethylamine and acetic anhydride (3:1). Intra-oocyte cyclic AMP levels were determined by radioimmunoassay as previously described (Davoren, Hsuch, 1985).

In data set [5] the test system is preovulatory follicles. Description: Oocyte maturation (GVBD) in cultured intact preovulatory follicles. The data set is classed as cell-based, rat. The protocol: as §2, with “Briefly,” for “Cumulus-enclosed oocytes (CEO) were collected and cultured as described (Vaknin et al. PMID: 11133687). Briefly,”, “For preovulatory follicles, follicles were excised from the ovary after PMSG treatment for 48 h. The follicles, 20-30 per vial, were cultured with or without different doses of rat INSL3 or LH in L15 medium without FBS.” left out, “(3:1).” for “(3:1). Intra-oocyte cyclic AMP levels were determined by radioimmunoassay as previously described (Davoren, Hsuch, 1985).”

The subject of data set [6] is seminiferous tubular cells. Description: cAMP production by seminiferous tubular cells. The data set is classed as cell-based, rat. Conditions: FIG. 2D. Background: cAMP levels reflect the balance of adenylyl cyclase and phosphodiesterase activity.
Method: Seminiferous tubular cells were treated with different hormones or forskolin (FSK) for 12 h before cAMP determination. Some cells were also pretreated with PT before hormonal treatment (filled circles) to suppress Gi activity. B: basal.
Seminiferous tubular cells were isolated by the method of Nagao (1989) In Vitro Cell Dev Biol 25:1088-1098, with modifications. Briefly, testes were decapsulated and incubated for 15 minutes in PBS containing 0.25% collagenase with occasional shaking. After collecting interstitial cells released from the preparation, seminiferous tubules were washed, and incubated with 0.25% trypsin to disperse tubular cells. The resulting cell suspension was filtered through 100 μm nylon mesh to remove cell aggregates and tissue debris, after which the tubular cells were collected by centrifugation.
Total cAMP in each well was measured in triplicate with primary cultured cells by a specific radioimmunoassay as previously described by Davoren and Hsuch (1985) Biol Reprod 33:37-52. All experiments were repeated at least four times.
Data set [7] relates to oocytes of preovulatory follicles. Description: In vivo oocyte maturation after intrabursal injection in PMSG-primed rats. Further details: species or system rat. The note with it: FIG. 3C. As for the experimental part: To study the effect of INSL3 on oocyte maturation in vivo, intrabursal injection was performed (Vaknin et al. PMID: 11133687). Immature PMSG-treated rats were lightly anesthetized by ether, and one of the ovaries was exteriorized through a small lumbosacral incision. Rat INSL3, dissolved in 100 μl of PBS, was injected through a 30-gauge needle threaded into the ovarian bursa via the adjoining fat pad. After injection, the ovary was replaced into the abdominal cavity, and skin was clipped. Eight hours later, CEOs were collected by puncturing the largest ovarian follicles to examine the occurrence of oocyte GVBD.

Data set [8] deals with T1, recombinant LGR8 (Homo sapiens, UniProt Q8WXD0).
T1 construct: expressed in transfected cells; host or cells: human 293T cells, calcium phosphate transfection
The note with it: 293T cells expressing recombinant LGR8; cited from earlier work.

Data set [9] has as its system gubernacular cells. Conditions: cited from earlier work.
Data set [10] deals with oocyte. Description: Gonadotropin induction of ovulation with pertussis toxin co-treatment.

Where a SMILES comes first, the peptide text is derived from it. Where no end group is shown, it is not given here. [ ]: non-standard residue; d: D form. d(hArg(Et2)) = CCN=C(NCC)NCCCC[C@@H](N)C(=O)O; hArg(Et2) = CCN=C(NCC)NCCCC[C@H](N)C(=O)O; dPhe(4-Cl) = N[C@H](Cc1ccc(Cl)cc1)C(=O)O; d2Nal = N[C@H](Cc1ccc2ccccc2c1)C(=O)O; d3Pal = N[C@H](Cc1cccnc1)C(=O)O

T1 sequence (Q8WXD0 whole entry): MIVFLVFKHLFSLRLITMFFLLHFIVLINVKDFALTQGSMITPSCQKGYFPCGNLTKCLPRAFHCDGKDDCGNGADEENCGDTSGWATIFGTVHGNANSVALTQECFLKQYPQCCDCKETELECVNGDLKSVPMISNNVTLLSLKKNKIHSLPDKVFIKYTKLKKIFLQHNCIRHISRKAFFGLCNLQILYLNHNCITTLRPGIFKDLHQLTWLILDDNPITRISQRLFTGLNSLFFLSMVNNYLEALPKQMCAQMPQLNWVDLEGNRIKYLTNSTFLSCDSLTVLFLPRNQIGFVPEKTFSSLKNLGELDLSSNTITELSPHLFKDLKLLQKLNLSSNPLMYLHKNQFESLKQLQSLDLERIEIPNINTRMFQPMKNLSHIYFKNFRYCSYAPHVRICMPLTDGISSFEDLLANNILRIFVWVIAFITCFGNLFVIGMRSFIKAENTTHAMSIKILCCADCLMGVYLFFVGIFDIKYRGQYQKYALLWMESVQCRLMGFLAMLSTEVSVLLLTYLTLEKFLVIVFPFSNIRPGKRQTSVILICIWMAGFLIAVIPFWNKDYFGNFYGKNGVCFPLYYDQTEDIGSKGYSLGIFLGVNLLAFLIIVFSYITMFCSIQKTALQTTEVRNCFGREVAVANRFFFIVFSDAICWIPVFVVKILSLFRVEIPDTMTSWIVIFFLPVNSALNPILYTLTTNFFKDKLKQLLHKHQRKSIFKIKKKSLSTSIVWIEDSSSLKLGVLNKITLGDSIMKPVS

On to `CCN=C(NCC)NCCCC[C@H](NC(=O)[C@H](CC(C)C)NC(=O)[C@@H](CCCCNC(=NCC)NCC)NC(=O)[C@H](Cc1ccc(O)cc1)NC(=O)[C@H](CO)NC(=O)[C@@H](Cc1cccnc1)NC(=O)[C@@H](Cc1ccc(Cl)cc1)NC(=O)[C@@H](Cc1ccc2ccccc2c1)NC(C)=O)C(=O)N1CCC[C@H]1C(=O)N[C@H](C)C(N)=O` [GnRH antagonist, ganirelix acetate] (Ac-[d2Nal][dPhe(4-Cl)][d3Pal]SY[d(hArg(Et2))]L[hArg(Et2)]P[dA]-NH2), for which the testis weight result in data set [1] (immature rats, GnRH antagonist alone, five days, FIG. 4A) was “decreased testis weight”. Besides, the “weight change in kidney or heart” value in data set [1] (rat, in vivo) was “no weight change in kidney or heart was detected”. The “testis INSL3 message levels” value in [2] was “decreased INSL3 message levels”. Further, in data set [3] (GnRH antagonist alone, FIG. 4D panel e), the “in situ staining of DNA fragments in seminiferous tubules” value was “the majority of tubules showed labeled cells corresponding to meiotic pachytene spermatocytes and postmeiotic spermatids”. Further, the “apoptotic DNA fragmentation in testis” value in data set [3] (GnRH antagonist alone, internucleosomal DNA fragmentation, FIG. 4C) was “increased apoptotic DNA fragmentation”.
Consider `CC(C)Cn1c(=O)n(C)c(=O)c2[nH]cnc21` [MIX, reference compound], for which the “oocyte maturation (germinal vesicle breakdown)” value in [4] is on record as “completely blocked oocyte maturation”.
For the molecule “INSL3: Insulin-like hormone superfamily member with B chain and A chain; rat INSL3 chemically synthesized; ligand of LGR8 (chain 1 QPPEARAKLCGHHLVRALVRVCGGPRWSPEA; chain 2 SVATNAVHRCCLTGCTQQDLLGLCPH; ends and bridges not checked; cysteine pairing not given here)”, in [4], the “oocyte maturation (germinal vesicle breakdown)” value was “further augmented oocyte maturation in a dose-dependent manner”. For the same molecule, the “time after culture at which augmentation of oocyte maturation was evident” value in [4] (time-course, cumulus-enclosed oocytes, FIG. 1E) came to 2 h. For the same molecule, the oocyte maturation result in data set [5] (intact preovulatory follicles, FIG. 1F) is “induced oocyte maturation in a dose-dependent manner”. For the same molecule, in [6] (INSL3 alone, 12 h), the “basal cAMP production” value is on record as “basal cAMP production was not affected”. For the same molecule, the “cAMP increases induced by forskolin” value in data set [6] (INSL3 with forskolin, 12 h) was “prevented cAMP increases induced by forskolin in a dose-dependent manner”. Also, the “cAMP levels stimulated by FSH” value in [6] (co-treatment of INSL3 with FSH) was “did not alter cAMP levels”. Moreover, the “oocyte maturation (germinal vesicle breakdown in preovulatory follicles)” value in [7] (8 h after intrabursal injection) is reported as “induced oocyte maturation”. In data set [7] (intrabursal treatment), the follicle rupture entry was “not follicle rupture”. For the same molecule, in data set [1] (co-treatment with GnRH antagonist, five days, FIG. 4A), the “effect on testis weight decrease caused by GnRH antagonist” value was “partially blocked”. Further, the “apoptosis induced by GnRH antagonist (internucleosomal DNA fragmentation)” value in data set [3] (co-treatment with GnRH antagonist, FIG. 4C) is on record as “blocked apoptosis”. Further, in [3] (co-treatment with GnRH antagonist, FIG. 4D panel f), the “in situ staining of DNA fragments in seminiferous tubules” value was “blocked the apoptosis-inducing action of the GnRH antagonist”. Further, the cAMP production result in [8] and in data set [9] was “stimulatory effects” each time.
Regarding pertussis toxin, in [5] (pertussis toxin with INSL3, FIG. 1G), the “effect on INSL3 induction of oocyte maturation” value is listed as “partially blocked the INSL3 induction of oocyte maturation”. The “effect on LH induction of oocyte maturation” value in data set [5] (pertussis toxin with LH, FIG. 1G) was “partially blocked the LH induction of oocyte maturation at lower (50 and 100 ng/ml), but not higher, doses of LH”. Moreover, the “effect on the suppressive effect of INSL3 on cAMP” value in data set [6] (pertussis toxin pretreatment) is “suppressive effect of INSL3 was blocked”. Besides, in data set [10], the follicle rupture result is listed as “without affecting follicle rupture” and the “gonadotropin induction of oocyte maturation” value is reported as “blocks the gonadotropin induction of oocyte maturation”.
